Test results: PubChem BioAssay (NCI)
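Results reflect a 48-hour exposure of cells in 96-well plates to compound at five concentrations. TGI is the concentration that stops growth completely.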

Columns and labels:
Assay in all cases: NCI anticancer screen, dose series, 48 h
COLO 205 colon = test system: COLO 205 colon
HOP-18 NSCLC = test system: HOP-18 NSCLC
HOP-92 NSCLC = test system: HOP-92 NSCLC
KM12 colon = test system: KM12 colon
LXFL 529 NSCLC = test system: LXFL 529 NSCLC
M19-MEL melanoma = test system: M19-MEL melanoma
MOLT-4 leukemia = test system: MOLT-4 leukemia
RXF-631 renal = test system: RXF-631 renal
SK-MEL-28 melanoma = test system: SK-MEL-28 melanoma
SNB-78 CNS = test system: SNB-78 CNS
UACC-62 melanoma = test system: UACC-62 melanoma
K-562 leukemia = test system: K-562 leukemia
NCI-H522 lung = test system: NCI-H522 lung
SNB-75 CNS = test system: SNB-75 CNS
SR leukemia = test system: SR leukemia
DU-145 prostate = test system: DU-145 prostate
MDA-MB-435 = test system: MDA-MB-435
NCI/ADR-RES ovarian = test system: NCI/ADR-RES ovarian
PC-3 prostate = test system: PC-3 prostate
T-47D breast = test system: T-47D breast

## Cc1ccc(NC(=O)CC/C(CC(=O)C(C)(C)C)=N/NC(=O)c2cc3ccccc3cc2O)cc1C
COLO 205 colon
  TGI: > 100 µM
HOP-18 NSCLC
  TGI: > 100 µM
HOP-92 NSCLC
  TGI: > 100 µM
KM12 colon
  TGI: > 100 µM
LXFL 529 NSCLC
  TGI: > 100 µM
M19-MEL melanoma
  TGI: > 100 µM
MOLT-4 leukemia
  TGI: > 100 µM
RXF-631 renal
  TGI: > 100 µM
SK-MEL-28 melanoma
  TGI: > 100 µM
SNB-78 CNS
  TGI: > 100 µM
UACC-62 melanoma
  TGI: 66 µM

## CCC12CCC[C@@]13C=C[C@H](O3)C(C)(C)C2=O (stereo partly drawn)
HOP-18 NSCLC
  TGI: > 100 µM
K-562 leukemia
  TGI: > 100 µM
LXFL 529 NSCLC
  TGI: > 100 µM
M19-MEL melanoma
  TGI: > 100 µM
MOLT-4 leukemia
  TGI: > 100 µM
NCI-H522 lung
  TGI: > 100 µM
RXF-631 renal
  TGI: > 100 µM
SNB-75 CNS
  TGI: > 100 µM
SNB-78 CNS
  TGI: > 100 µM
SR leukemia
  TGI: > 100 µM
UACC-62 melanoma
  TGI: > 100 µM

## CC1(C)N=C(/C(Cl)=[N+](/[O-])C(=O)c2ccc(Cl)cc2)C(C)(C)N1O
COLO 205 colon
  TGI: 34.2 µM
DU-145 prostate
  TGI: > 100 µM
HOP-92 NSCLC
  TGI: 31.4 µM
K-562 leukemia
  TGI: > 100 µM
KM12 colon
  TGI: > 100 µM
MDA-MB-435
  TGI: 52.4 µM
NCI/ADR-RES ovarian
  TGI: 63.8 µM
PC-3 prostate
  TGI: 37.5 µM
SK-MEL-28 melanoma
  TGI: 37.3 µM
SR leukemia
  TGI: > 100 µM
T-47D breast
  TGI: 95.1 µM
